Assay results: patent publication US12605382B2, “Pharmaceutical composition for preventing, alleviating, or treating cancer containing 2,6-dichloro-4-(4-(4-hydroxycyclohexylamino)-7H- pyrrolo[2,3-d]pyrimidin-5-yl)phenol as active ingredient” (JBKLAB CO., LTD., priority 2021, dated 2026)

What was measured:
[1] = tested on: CD8+ T cells; test: Immunocytochemistry (IHC) analysis of tumor tissue, 4T1 allograft model; format: in vivo, BALB/c mice
Source text: (§1) In order to evaluate changes in the expression of proteins such as BRD4 and HIF-1α, the tumor cells isolated in Example 10 were subjected to immunocytochemistry (IHC) analysis to evaluate the changes in protein expression in the tumor microenvironment according to the treatment method.
(§2) Specifically, tumor tissue was extracted, fixed in 4% paraformaldehyde, and embedded in paraffin to create blocks. The paraffin block containing the tissue was sliced transversely to a thickness of 4 μm and attached to a slide. Paraffin was removed from the tissue attached to the slide using xylene and ethanol, and endogenous peroxidase was removed from the tissue by immersing the slide in a solution of 3% H2O2 in methanol for 10 minutes at room temperature. Then, for antigen retrieval, the slide was placed in 0.01 M sodium citrate buffer (pH 6.0) and boiled. In order to eliminate non-specific binding, FcR on the cell surface was blocked using 5% normal goat serum. Then, the slide was incubated overnight at 4° C. with primary antibodies (HIF-1a (SantaCruz, sc-13515), PD-L1 (Abcam, ab2025921), CD8 (Abcam, ab203035), and CD68 (CellSignaling, 97778)). Secondary antibodies were attached and color development was induced using ImmPRESSGoat Anti-Rat IgG (Mouse Adsorbed) Polymer kit (Vector Laboratories), Abcam (ab150165, ab150081), and REAL En Visiondetection system (Dako). The stained tissue was observed under an Axioskop40 optical microscope (Carl Zeiss) at 40× magnification, and the images were saved using AxioVision4.7 software. The expression level was measured through the area of the stained region in the photograph using Image J software (NIH, Bethesda). Average density values were calculated from at least three slides per sample.

[2] = tested on: CD68+ macrophages; test: as above; format: in vivo, BALB/c mice
Source text: as §1, §2

[3] = tested on: HIF-1α; test: as above; format: in vivo, BALB/c mice
Source text: as §1, §2

[4] = tested on: PD-L1; test: as above; format: in vivo, BALB/c mice
Source text: as §1, §2

[5] = tested on: Brd4; test: as above; format: in vivo, BALB/c mice
Source text: as §1, §2

[6] = tested on: BT20; test: Cell viability assay (WST-8), breast cancer cell line; format: cell-based, human; conditions: dose dependently
Protocol: An experiment was performed to confirm the growth inhibitory effect of the compound of Example 1, the active ingredient of the pharmaceutical composition of the present invention, on breast cancer cell lines through cell viability assay.
Specifically, the cell viability assay was performed as follows. BT20, a human-derived breast cancer cell line, and MDA-MB-231, a TNBC cell line, were each seeded in 96-well plates at the density of 5×10^3 cells/well and cultured for 24 hours. Then, I-bet 762 and the compound of Example 1 were treated thereto at different concentrations and cultured for 48 hours. At the end of the culture, 100 μl of WST-8 solution was added to each well of the plate, and the absorbance was measured with a microplate reader using a 450 nm optical filter to measure the formazan produced by the reducing factors in living cells.
FIGS. 4A-4C show the cell viability of MDA-MB-231, MDA-MB-453, and BT-20 after 24 hours of treatment with the compound of Example 1. As shown in FIGS. 4A-4C, it was confirmed that the cell viability was suppressed not only in general breast cancer cell lines, but also in TNBC cell lines dose dependently.

How did the “population of CD8+ T cells” value ([1]; alone) turn out when `Oc1c(Cl)cc(-c2c[nH]c3ncnc(N[C@H]4CC[C@H](O)CC4)c23)cc1Cl` [Example 1, (trans)-2,6-dichloro-4-(4-(4-hydroxycyclohexylamino)-7H-pyrrolo[2,3-d]pyrimidin-5-yl)phenol] was run?
Its value is “increased”.

And the “population of CD8+ T cells” value ([1]; combined with radiation)?
Its value is “further increased (synergistic effect)”.

What about the “population of CD68+ macrophages in tumor tissue” value [2] of the same compound?
The value was “significantly (P<0.01) reduced”.

What about the “HIF-1α expression in tumor tissue” value [3] of the same compound?
Its value is “significantly (P<0.05) reduced”.

And the “expression of PD-L1” value [4]?
The value was “significantly (P<0.01) decreased”.

And the “Brd4 expression in tumor tissue” value [5]?
The value was “significantly (P<0.001) reduced”.

And the cell viability ([6]; BT20, 48 hours)?
Its cell viability is “inhibited the cell viability”.

What about the cell viability ([6]; BT-20, 24 hours) of the same compound?
The cell viability was “suppressed”.
